Measured values as given in the NIST ThermoML archive (doi:10.1016/j.jct.2018.08.013).
Where “and” joins values, the source holds several entries; their conditions need not be identical. Equal entries are not always repeated.

Legend:
[1] = xn = mol fraction of the nth substance listed; details: 298 K; 100 kPa; Crystal of intercomponent compound 1; X-ray diffraction; x2 = 0.486
[2] = specific heat capacity at constant pressure; xn = mol fraction of the nth substance listed; details: 100 kPa, Crystal of intercomponent compound 1, relaxation calorimetry, x2 = 0.486

[Te] [tellurium] + [Ga]
Details | mass density [kg/m3]
[1] | 5448

[2]
Details | specific heat capacity
14.14 K | 12.49 J/K/kg
14.15 K | 12.53 J/K/kg
16.16 K | 17.22 J/K/kg
16.18 K | 17.24 J/K/kg
18.17 K | 22.39 J/K/kg and 22.38 J/K/kg
18.18 K | 22.43 J/K/kg
20.18 K | 27.78 J/K/kg
20.19 K | 27.77 J/K/kg
20.2 K | 27.79 J/K/kg
22.21 K | 33.2 J/K/kg
22.22 K | 33.22 J/K/kg
24.22 K | 38.74 J/K/kg
24.23 K | 38.79 J/K/kg
26.24 K | 44.36 J/K/kg and 44.33 J/K/kg and 44.32 J/K/kg
28.25 K | 49.69 J/K/kg
28.26 K | 49.67 J/K/kg
30.27 K | 54.94 J/K/kg
30.29 K | 54.99 J/K/kg
35.31 K | 68.01 J/K/kg
35.32 K | 68.01 J/K/kg
35.33 K | 68.06 J/K/kg
40.35 K | 80.38 J/K/kg
40.36 K | 80.53 J/K/kg and 80.38 J/K/kg
45.39 K | 92.13 J/K/kg
45.41 K | 91.88 J/K/kg
50.41 K | 103.44 J/K/kg
50.43 K | 103.49 J/K/kg
50.46 K | 103.13 J/K/kg
55.45 K | 113.77 J/K/kg
55.46 K | 113.98 J/K/kg
55.5 K | 113.47 J/K/kg
60.48 K | 123.56 J/K/kg
60.5 K | 123.56 J/K/kg
60.52 K | 123.05 J/K/kg
65.51 K | 133.13 J/K/kg
65.54 K | 132.63 J/K/kg
65.55 K | 133.08 J/K/kg
70.55 K | 141.95 J/K/kg
70.56 K | 141.34 J/K/kg
70.6 K | 141.7 J/K/kg
75.58 K | 149.91 J/K/kg
75.59 K | 149.2 J/K/kg
75.64 K | 149.81 J/K/kg
80.61 K | 157.76 J/K/kg
80.63 K | 157.11 J/K/kg
80.67 K | 157.61 J/K/kg
85.63 K | 164.86 J/K/kg
85.64 K | 164.2 J/K/kg
85.72 K | 164.66 J/K/kg
90.68 K | 171.5 J/K/kg and 170.94 J/K/kg
90.75 K | 171.14 J/K/kg
95.71 K | 177.22 J/K/kg and 176.31 J/K/kg
95.78 K | 176.62 J/K/kg
100.78 K | 185.08 J/K/kg
100.82 K | 184.52 J/K/kg
100.86 K | 184.88 J/K/kg
105.73 K | 192.73 J/K/kg
105.87 K | 191.31 J/K/kg and 192.07 J/K/kg
113.71 K | 198.86 J/K/kg
113.79 K | 197.4 J/K/kg
113.83 K | 197.65 J/K/kg
121.68 K | 205.1 J/K/kg
121.71 K | 204.14 J/K/kg
121.77 K | 203.73 J/K/kg
129.62 K | 209.51 J/K/kg
129.64 K | 209.91 J/K/kg
129.7 K | 208.39 J/K/kg
137.55 K | 213.76 J/K/kg
137.59 K | 213.56 J/K/kg
137.61 K | 212.24 J/K/kg
145.48 K | 218.93 J/K/kg
145.53 K | 218.27 J/K/kg
145.54 K | 217.36 J/K/kg
153.41 K | 222.38 J/K/kg
153.42 K | 222.23 J/K/kg
153.44 K | 222.08 J/K/kg
161.35 K | 224.41 J/K/kg and 224.26 J/K/kg
161.36 K | 224.31 J/K/kg
169.28 K | 227.5 J/K/kg and 227.09 J/K/kg
169.3 K | 227.04 J/K/kg
177.2 K | 229.17 J/K/kg and 228.87 J/K/kg
177.22 K | 228.92 J/K/kg
185.1 K | 230.89 J/K/kg
185.14 K | 230.79 J/K/kg
185.15 K | 230.59 J/K/kg
193.03 K | 233.63 J/K/kg
193.06 K | 233.38 J/K/kg
193.08 K | 233.43 J/K/kg
200.95 K | 233.83 J/K/kg
200.99 K | 233.88 J/K/kg
201 K | 233.68 J/K/kg
201.42 K | 236.77 J/K/kg
201.44 K | 236.67 J/K/kg
201.53 K | 234.69 J/K/kg
206.43 K | 237.94 J/K/kg
206.46 K | 237.84 J/K/kg
206.54 K | 236.01 J/K/kg
208.87 K | 236.16 J/K/kg
208.91 K | 236.52 J/K/kg
208.92 K | 236.37 J/K/kg
211.46 K | 238.9 J/K/kg
211.47 K | 238.9 J/K/kg
211.55 K | 236.98 J/K/kg
216.49 K | 239.91 J/K/kg
216.55 K | 238.55 J/K/kg
216.78 K | 238.34 J/K/kg
216.82 K | 238.39 J/K/kg
216.83 K | 238.19 J/K/kg
221.51 K | 241.18 J/K/kg and 241.33 J/K/kg and 241.13 J/K/kg
221.53 K | 241.03 J/K/kg
221.59 K | 239.61 J/K/kg
224.71 K | 241.13 J/K/kg
224.75 K | 241.28 J/K/kg
224.76 K | 240.98 J/K/kg
225.58 K | 241.79 J/K/kg
225.61 K | 241.84 J/K/kg
226.54 K | 242.25 J/K/kg and 242.35 J/K/kg
226.61 K | 240.73 J/K/kg
229.65 K | 241.89 J/K/kg
229.68 K | 241.44 J/K/kg
231.54 K | 243.26 J/K/kg
231.76 K | 241.44 J/K/kg
232.62 K | 240.42 J/K/kg
232.68 K | 239.97 J/K/kg and 240.47 J/K/kg
233.72 K | 242.04 J/K/kg
233.75 K | 241.94 J/K/kg
236.76 K | 242.3 J/K/kg
237.69 K | 243.11 J/K/kg
237.73 K | 242.45 J/K/kg
240.54 K | 241.54 J/K/kg
240.6 K | 241.28 J/K/kg and 241.49 J/K/kg
